Results as given in ChEMBL document CHEMBL3120093 (J Med Chem, 2014).

Tests used:
[1] = Plasma concentration in rat at 5 mg/kg, po after 24 hrs; type: ADME, organism-based; design: dose 5 mg/kg, route oral
[2] = AUC in rat at 5 mg/kg, po after 4 hrs; type: ADME, organism-based; design: time < 4 hr, dose 5 mg/kg, route oral; details: plasma
[3] = Plasma concentration in dog at […], po after 24 hrs; type: ADME, organism-based, Canis lupus familiaris; design: dose 2.3 mg/kg, route oral
[4] = Plasma concentration in rat at 5 mg/kg, po after 4 hrs; type: ADME, organism-based; design: dose 5 mg/kg, route oral
[5] = AUC in dog at […], po after 24 hrs; type: ADME, organism-based, Canis lupus familiaris; design: time < 24 hr, dose 2.3 mg/kg, route oral; details: plasma
[6] = Permeability of the compound at PH 7.4 by PAMPA; type: ADME; details: read-out: permeability
[7] = AUC in rat at 5 mg/kg, po after 24 hrs; type: ADME, organism-based; design: time < 24 hr, dose 5 mg/kg, route oral; details: plasma
[8] = Oral bioavailability in rat at 5 mg/kg after 24 hrs; type: ADME, organism-based; details: in vivo
[9] = Oral bioavailability in dog at […] after 24 hrs; type: ADME, organism-based, Canis lupus familiaris; details: in vivo
[10] = Drug uptake in rat liver at 5 mg/kg, po after 24 hrs; type: ADME, organism-based; design: dose 5 mg/kg, route oral; details: read-out: Drug uptake
[11] = Drug uptake in rat liver at 5 mg/kg, po after 4 hrs; type: ADME, organism-based; design: dose 5 mg/kg, route oral; details: read-out: Drug uptake
[12] = Oral bioavailability in dog at 3.5 mg/kg after 24 hrs; type: ADME, organism-based, Canis lupus familiaris; details: in vivo
[13] = Plasma concentration in dog at 3.5 mg/kg, po after 24 hrs; type: ADME, organism-based, Canis lupus familiaris; design: dose 3.5 mg/kg, route oral
[14] = AUC in dog at 3.5 mg/kg, po after 24 hrs; type: ADME, organism-based, Canis lupus familiaris; design: time < 24 hr, dose 3.5 mg/kg, route oral; details: plasma
[15] = Half life in rat at 2 mg/kg, iv after 24 hrs; type: ADME, organism-based; design: dose 2 mg/kg, route intravenous; details: in vivo
[16] = Half life in dog at 1 mg/kg, iv after 24 hrs; type: ADME, organism-based, Canis lupus familiaris; design: dose 1 mg/kg, route intravenous; details: in vivo
Liver microsome [17] = experiment: Metabolic stability of the compound in human liver microsomes assessed as GSH adduct formation at 10 uM after 30 mins; type: ADME; details: 0.5 h
[18] = Clearance in rat at 2 mg/kg, iv after 4 hrs; type: ADME, organism-based; design: dose 2 mg/kg, route intravenous; details: in vivo
Liver microsome [19] = experiment: Metabolic stability of the compound in human liver microsomes assessed as cyanide adduct formation at 10 uM after 30 mins; type: ADME; details: 0.5 h
[20] = Oral bioavailability in dog at 3 mg/kg after 24 hrs; type: ADME, organism-based, Canis lupus familiaris; details: plasma
[21] = AUC in dog at 3 mg/kg, po after 24 hrs; type: ADME, organism-based, Canis lupus familiaris; design: time < 24 hr, dose 3 mg/kg, route oral; details: plasma
[22] = Volume of distribution in dog at 1 mg/kg, iv after 24 hrs; type: ADME, organism-based, Canis lupus familiaris; design: dose 1 mg/kg, route intravenous; details: in vivo
[23] = Plasma concentration in dog at 3 mg/kg, po after 24 hrs; type: ADME, organism-based, Canis lupus familiaris; design: dose 3 mg/kg, route oral
[24] = Volume of distribution in rat at 2 mg/kg, iv after 24 hrs; type: ADME, organism-based; design: dose 2 mg/kg, route intravenous; details: in vivo
Liver microsome [25] = experiment: Metabolic stability of the compound in human liver microsomes assessed as GSH adduct formation at 10 uM after 30 mins; details: 0.5 h
[26] = Clearance in rat at 2 mg/kg, iv after 24 hrs; type: ADME, organism-based; design: dose 2 mg/kg, route intravenous; details: in vivo
Liver microsome [27] = experiment: Metabolic stability of the compound in rat liver microsomes assessed as […] formation at 10 uM after 30 mins; type: ADME; details: 0.5 h
[28] = Clearance in dog at 1 mg/kg, iv after 24 hrs; type: ADME, organism-based, Canis lupus familiaris; design: dose 1 mg/kg, route intravenous; details: in vivo
[29] = Volume of distribution in mouse at 5 mg/kg, iv after 24 hrs; type: ADME, organism-based; design: dose 5 mg/kg, route intravenous; details: in vivo
[30] = Ratio of drug level in liver to plasma in rat at 5 mg/kg, po after 24 hrs; type: ADME, organism-based; design: dose 5 mg/kg, route oral
[31] = Plasma concentration in mouse at 20 mg/kg, po after 24 hrs; type: ADME, organism-based; design: dose 20 mg/kg, route oral
[32] = Permeability from basolateral to apical side of human Caco2 cells; type: ADME, cell-based; details: Caco-2, read-out: permeability
[33] = Permeability from apical to basolateral side of human Caco2 cells; type: ADME, cell-based; details: Caco-2, read-out: permeability
[34] = Oral bioavailability in mouse at 20 mg/kg after 24 hrs; type: ADME, organism-based; details: plasma
[35] = Clearance in mouse at 5 mg/kg, iv after 24 hrs; type: ADME, organism-based; design: dose 5 mg/kg, route intravenous; details: in vivo
[36] = AUC in mouse at 20 mg/kg, po after 24 hrs; type: ADME, organism-based; design: time < 24 hr, dose 20 mg/kg, route oral; details: plasma
[37] = Half life in mouse at 5 mg/kg, iv after 24 hrs; type: ADME, organism-based; design: dose 5 mg/kg, route intravenous; details: in vivo
[38] = Drug uptake in mouse liver at 20 mg/kg, po after 24 hrs; type: ADME, organism-based; design: dose 20 mg/kg, route oral; details: read-out: Drug uptake

SMILES: COC(=O)N[C@H](C(=O)N1CCC[C@H]1c1nc(-c2ccc(-c3ccc(-c4c[nH]c([C@@H]5CCCN5C(=O)[C@@H](NC(=O)OC)C(C)C)n4)cc3)cc2)c[nH]1)C(C)C
- concentration at 24 h [1]: 18 nM
- AUC at 4 h [2]: 2.18 µM·h
- concentration at 24 h [3]: 26 nM
- concentration at 4 h [4]: 661 nM
- AUC at 24 h [5]: 11 µM·h
- Papp [6]: 49.6 ×10⁻⁶ cm/s
- AUC at 24 h [7]: 4.8 µM·h
- bioavailability [8]: 50%
- bioavailability at 24 h [9]: 108%
- concentration at 24 h [10]: 103 nM
- concentration at 4 h [11]: 2240 nM

SMILES: CCN(CC)[C@@H](C(=O)N1CCC[C@H]1c1ncc(-c2ccc(-c3ccc(-c4cnc([C@@H]5CCCN5C(=O)[C@H](C)NC(=O)OC)[nH]4)cc3)cc2)[nH]1)c1ccccc1
- AUC at 4 h [2]: 0.049 µM·h
- concentration at 4 h [4]: 30 nM
- Papp [6]: 25.3 ×10⁻⁶ cm/s
- AUC at 24 h [7]: 0.165 µM·h
- bioavailability [8]: 3.6%
- concentration at 24 h [10]: 178 nM
- concentration at 4 h [11]: 1830 nM
- bioavailability [12]: 66%
- concentration at 24 h [13]: 9 nM
- AUC at 24 h [14]: 1.2 µM·h

SMILES: O=C([C@@H](c1ccccc1)N1CCCCC1)N1CCC[C@H]1c1ncc(-c2ccc(-c3ccc(-c4cnc([C@@H]5CCCN5C(=O)[C@@H](c5ccccc5)N5CCCCC5)[nH]4)cc3)cc2)[nH]1
- half-life [15]: 7.7 h
- half-life [16]: > 12 h
- AUC at 4 h [2]: 0.047 µM·h
- Stability (Liver microsome [17]): Stable
- clearance [18]: 58 mL/min/kg
- concentration at 4 h [4]: 13 nM
- Stability (Liver microsome [19]): Unstable
- bioavailability [20]: 14%
- Papp [6]: 25.1 ×10⁻⁶ cm/s
- AUC at 24 h [21]: 0.272 µM·h
- Vd [22]: 10 L/kg
- concentration at 24 h [23]: 8.3 nM
- concentration at 4 h [11]: 1200 nM
- Vd [24]: 20 L/kg
- Stability (Liver microsome [25]): Stable
- clearance [26]: 63 mL/min/kg
- Stability (Liver microsome [27]): Unstable
- clearance [28]: 28 mL/min/kg

SMILES: COC(=O)N[C@@H](C(=O)N1CCC[C@H]1c1ncc(-c2ccc(-c3ccc(-c4cnc([C@@H]5CCCN5C(=O)[C@H]5CCCO5)[nH]4)cc3)cc2)[nH]1)c1ccccc1
- half-life [15]: 6.9 h
- half-life [16]: > 10 h
- concentration at 24 h [1]: 4.5 nM
- AUC at 4 h [2]: 0.809 µM·h
- Vd [29]: 1.9 L/kg
- concentration at 4 h [4]: 234 nM
- Kp at 24 h [30]: 26
- concentration at 24 h [31]: 59 nM
- Papp B→A [32]: 10.5 ×10⁻⁶ cm/s
- bioavailability [20]: 45%
- Papp [6]: 46.4 ×10⁻⁶ cm/s
- AUC at 24 h [21]: 1.52 µM·h
- Papp A→B [33]: < 1.5 ×10⁻⁶ cm/s
- AUC at 24 h [7]: 1.83 µM·h
- bioavailability [34]: 17%
- bioavailability [8]: 6.8%
- Vd [22]: 7.5 L/kg
- clearance [35]: 5.3 mL/min/kg
- AUC at 24 h [36]: 15.1 µM·h
- half-life [37]: 2.9 h
- concentration at 24 h [10]: 116 nM
- concentration at 24 h [23]: 6 nM
- concentration at 24 h [38]: 253 nM
- concentration at 4 h [11]: 2570 nM
- Vd [24]: 0.3 L/kg
- clearance [26]: 4.4 mL/min/kg
- clearance [28]: 22 mL/min/kg

SMILES: CN(C)[C@@H](C(=O)N1CCC[C@H]1c1ncc(-c2ccc(-c3ccc(-c4cnc([C@@H]5CCCN5C(=O)[C@H]5CCCO5)[nH]4)cc3)cc2)[nH]1)c1ccccc1
- half-life [15]: 14 h
- Vd [29]: 14 L/kg
- concentration at 24 h [31]: 25 nM
- bioavailability [20]: 60%
- Papp [6]: 15.8 ×10⁻⁶ cm/s
- AUC at 24 h [21]: 0.436 µM·h
- bioavailability [34]: 6%
- Vd [22]: 82 L/kg
- clearance [35]: 18 mL/min/kg
- AUC at 24 h [36]: 1.42 µM·h
- half-life [37]: 7.8 h
- concentration at 24 h [23]: 30 nM
- concentration at 24 h [38]: 539 nM
- Vd [24]: 60 L/kg
- clearance [26]: 57 mL/min/kg
